Experimental data: ChEMBL document CHEMBL1151469, “Cytotoxic activity of N-chlorotaurine on Acanthamoeba spp” (Antimicrob Agents Chemother, 2008)
Active and inactive are the calls of the source. No cut-off for these calls is given here.

Assays:
Acanthamoeba polyphaga [1] = assay: Amoebicidal activity against Trophozoites of Acanthamoeba polyphaga 5SU assessed as reduction in killing time at 10 mM in phosphate buffered saline at pH 5 by hemocytometer using trypan blue stain in presence of 160 mM beta-alanine; type: functional, organism-based
Acanthamoeba polyphaga [2] = assay: Amoebicidal activity against Trophozoites of Acanthamoeba polyphaga 5SU assessed as reduction killing time at 55 mM in phosphate buffered saline at pH 7 by hemocytometer using trypan blue stain in presence of 190 mM ammonium chloride; type: functional, organism-based
Acanthamoeba polyphaga [3] = assay: Amoebicidal activity against Trophozoites of Acanthamoeba polyphaga 5SU assessed as rounding of the cells at 55 mM in peptone yeast extract glucose medium at pH 7 after 30 mins by hemocytometer using trypan blue stain; type: functional, organism-based
Acanthamoeba hatchetti [4] = assay: Amoebicidal activity against Trophozoites of Acanthamoeba hatchetti 11DS assessed as killing time at 55 mM in peptone yeast extract glucose medium at pH 7 by hemocytometer using trypan blue stain; type: functional
Acanthamoeba polyphaga [5] = assay: Amoebicidal activity against Trophozoites of Acanthamoeba polyphaga 5SU assessed as log reduction in cell count at 10 mM in phosphate buffered saline at pH 5 after 6 hrs by hemocytometer using trypan blue stain in presence of 34 mM ammonium chloride; type: functional, organism-based
Acanthamoeba hatchetti [6] = assay: Amoebicidal activity against Trophozoites of Acanthamoeba hatchetti 11DS assessed as log reduction in cell count at 10 mM in phosphate buffered saline at pH 5 after 24 hrs by hemocytometer using trypan blue stain in presence of 34 mM ammonium chloride; type: functional, organism-based
Acanthamoeba polyphaga [7] = assay: Amoebicidal activity against Trophozoites of Acanthamoeba polyphaga 5SU assessed as log reduction in cell count at 10 mM in phosphate buffered saline at pH 5 after 1 hr by hemocytometer using trypan blue stain in presence of 160 mM beta-alanine; type: functional, organism-based
Acanthamoeba polyphaga [8] = assay: Amoebicidal activity against Trophozoites of Acanthamoeba polyphaga 5SU assessed as killing time at 55 mM in peptone yeast extract glucose medium at pH 7 by hemocytometer using trypan blue stain; type: functional
Acanthamoeba polyphaga [9] = assay: Amoebicidal activity against Trophozoites of Acanthamoeba polyphaga 5SU assessed as killing time at 55 mM in phosphate buffered saline at pH 7 by hemocytometer using trypan blue stain; type: functional
Acanthamoeba hatchetti [10] = assay: Amoebicidal activity against Trophozoites of Acanthamoeba hatchetti 11DS assessed as rounding of the cells at 55 mM in phosphate buffered saline at pH 7 after 15 mins by hemocytometer using trypan blue stain; type: functional, organism-based
Acanthamoeba hatchetti [11] = assay: Amoebicidal activity against Trophozoites of Acanthamoeba hatchetti 11DS assessed as killing time at 55 mM in phosphate buffered saline at pH 7 by hemocytometer using trypan blue stain; type: functional
Acanthamoeba polyphaga [12] = assay: Amoebicidal activity against Trophozoites of Acanthamoeba polyphaga 5SU assessed as prevention of sporadic cysts formation at 55 mM in phosphate buffered saline at pH 7 by hemocytometer using trypan blue stain; type: functional, organism-based
Acanthamoeba hatchetti [13] = assay: Amoebicidal activity against Trophozoites of Acanthamoeba hatchetti 11DS assessed as rounding of the cells at 55 mM in peptone yeast extract glucose medium at pH 7 after 30 mins by hemocytometer using trypan blue stain; type: functional, organism-based
Acanthamoeba polyphaga [14] = assay: Amoebicidal activity against Trophozoites of Acanthamoeba polyphaga 5SU assessed as complete killing time at 55 mM in phosphate buffered saline at pH 7 after 6 hrs by hemocytometer using trypan blue stain in presence of 190 mM ammonium chloride; type: functional, organism-based
Acanthamoeba hatchetti [15] = assay: Amoebicidal activity against Trophozoites of Acanthamoeba hatchetti 11DS assessed as reduction in cell count at 10 mM in phosphate buffered saline at pH 7 within 1 hr by hemocytometer using trypan blue stain in presence of 290 mM ammonium chloride; type: functional, organism-based
Acanthamoeba polyphaga [16] = assay: Amoebicidal activity against Trophozoites of Acanthamoeba polyphaga 5SU assessed as increase in cell killing at 10 mM in phosphate buffered saline at pH 7 within 3 hrs by hemocytometer using trypan blue stain in presence of 34 mM ammonium chloride; type: functional, organism-based
Acanthamoeba hatchetti [17] = assay: Amoebicidal activity against Trophozoites of Acanthamoeba hatchetti 11DS assessed as killing time at 10 mM in phosphate buffered saline at pH 7 by hemocytometer using trypan blue stain; type: functional
Acanthamoeba polyphaga [18] = assay: Amoebicidal activity against Trophozoites of Acanthamoeba polyphaga 5SU assessed as killing time at 10 mM in phosphate buffered saline at pH 7 by hemocytometer using trypan blue stain; type: functional
Acanthamoeba castellanii [19] = assay: Amoebicidal activity against Trophozoites of Acanthamoeba castellanii 40AB assessed as log reduction in cell count at 20 mM in peptone yeast extract glucose medium at pH 7 after 24 hrs by hemocytometer using trypan blue stain; type: functional
Acanthamoeba hatchetti [20] = assay: Amoebicidal activity against Trophozoites of Acanthamoeba hatchetti 11DS assessed as killing time at 20 mM in peptone yeast extract glucose medium at pH 7 by hemocytometer using trypan blue stain; type: functional
Acanthamoeba castellanii [21] = assay: Amoebicidal activity against Trophozoites of Acanthamoeba castellanii 4CL assessed as killing time at 20 mM in peptone yeast extract glucose medium at pH 7 by hemocytometer using trypan blue stain; type: functional
Acanthamoeba polyphaga [22] = assay: Amoebicidal activity against Trophozoites of Acanthamoeba polyphaga 5SU assessed as log reduction in cell count at 10 mM in phosphate buffered saline at pH 5 after 1 hr by hemocytometer using trypan blue staining; type: functional, organism-based
Acanthamoeba polyphaga [23] = assay: Amoebicidal activity against Trophozoites of Acanthamoeba polyphaga 5SU assessed as increase in reduction in cell count at 20 mM in peptone yeast extract glucose medium at pH 7 after 6 hrs by hemocytometer using trypan blue stain; type: functional, organism-based
Acanthamoeba polyphaga [24] = assay: Amoebicidal activity against Trophozoites of Acanthamoeba polyphaga 5SU assessed as rounding of cells at 55 mM in phosphate buffered saline at pH 7 after 15 mins by hemocytometer using trypan blue stain; type: functional, organism-based
Acanthamoeba hatchetti [25] = assay: Amoebicidal activity against Trophozoites of Acanthamoeba hatchetti 11DS assessed as increase in reduction in cell count at 20 mM in peptone yeast extract glucose medium at pH 7 after 6 hrs by hemocytometer using trypan blue stain in presence of 580 mM ammonium chloride; type: functional, organism-based
Acanthamoeba polyphaga [26] = assay: Amoebicidal activity against Trophozoites of Acanthamoeba polyphaga 5SU assessed as reduction in cell count at 20 mM in peptone yeast extract glucose medium at pH 7 after 6 hrs by hemocytometer using trypan blue stain in presence of 580 mM ammonium chloride; type: functional, organism-based
Acanthamoeba hatchetti [27] = assay: Amoebicidal activity against Trophozoites of Acanthamoeba hatchetti 11DS in peptone yeast extract glucose medium at pH 7 after 1 hr by hemocytometer using trypan blue stain; type: functional, organism-based
Acanthamoeba hatchetti [28] = assay: Amoebicidal activity against Trophozoites of Acanthamoeba hatchetti 11DS in peptone yeast extract glucose medium at pH 7 after 6 hrs by hemocytometer using trypan blue stain in presence of 68 mM ammonium chloride; type: functional, organism-based
Acanthamoeba polyphaga [29] = assay: Amoebicidal activity against Trophozoites of Acanthamoeba polyphaga 5SU in phosphate buffered saline at pH 7 after 6 hrs by hemocytometer using trypan blue stain in presence of 34 mM ammonium chloride; type: functional, organism-based
Acanthamoeba polyphaga [30] = assay: Amoebicidal activity against excysted trophozoites of Acanthamoeba polyphaga 5SU at 55 mM in peptone yeast extract glucose medium after 4 days by hemocytometer using trypan blue stain; type: functional
Acanthamoeba polyphaga [31] = assay: Amoebicidal activity against Trophozoites of Acanthamoeba polyphaga 5SU assessed as complete loss of viability at 55 mM in phosphate buffered saline after 24 hrs by hemocytometer using trypan blue stain in presence of 190 mM ammonium chloride; type: functional, organism-based
Acanthamoeba hatchetti [32] = assay: Amoebicidal activity against Trophozoites of Acanthamoeba hatchetti 11DS assessed as complete loss of viability at 55 mM in phosphate buffered saline incubated in xenic agar medium after 14 days by hemocytometer using trypan blue stain in presence of 190 mM ammonium chloride; type: functional, organism-based

SMILES: O=S(=O)(O)CCNCl
- Activity (Acanthamoeba polyphaga [1]): inactive
- Activity (Acanthamoeba polyphaga [2]): inactive
- Activity (Acanthamoeba polyphaga [3]): Active
- Activity (Acanthamoeba hatchetti [4]): 3 h
- Activity (Acanthamoeba polyphaga [5]): Active
- Activity (Acanthamoeba hatchetti [6]): inactive
- Activity (Acanthamoeba polyphaga [7]): Active
- Activity (Acanthamoeba polyphaga [8]): 3 h
- Activity (Acanthamoeba polyphaga [9]): 1 h
- Activity (Acanthamoeba hatchetti [10]): Active
- Activity (Acanthamoeba hatchetti [11]): 30 min
- Activity (Acanthamoeba polyphaga [12]): inactive
- Activity (Acanthamoeba hatchetti [13]): Active
- Activity (Acanthamoeba polyphaga [14]): Active
- Activity (Acanthamoeba hatchetti [15]): Active
- Activity (Acanthamoeba polyphaga [16]): Active
- Activity (Acanthamoeba hatchetti [17]): 30 h
- Activity (Acanthamoeba polyphaga [18]): 15 h
- Activity (Acanthamoeba castellanii [19]): 2
- Activity (Acanthamoeba hatchetti [20]): 36 h
- Activity (Acanthamoeba castellanii [21]): 36 h
- Activity (Acanthamoeba polyphaga [22]): Active
- Activity (Acanthamoeba polyphaga [23]): Active
- Activity (Acanthamoeba polyphaga [24]): Active
- Activity (Acanthamoeba hatchetti [25]): inactive
- Activity (Acanthamoeba polyphaga [26]): Active
- EC50 (Acanthamoeba hatchetti [27]): 10.1 mM
- EC50 (Acanthamoeba hatchetti [28]): 10.4 mM
- EC50 (Acanthamoeba polyphaga [29]): 5 mM
- EC90 (Acanthamoeba polyphaga [29]): 9.08 mM
- Activity (Acanthamoeba polyphaga [30]): 8000
- Activity (Acanthamoeba polyphaga [31]): Active
- Activity (Acanthamoeba hatchetti [32]): inactive
